Measurements from ChEMBL document CHEMBL5113519, “Discovery of Novel Imidazo[4,5-c]quinoline Derivatives to Treat Inflammatory Bowel Disease (IBD) by Inhibiting Multiple Proinflammatory Signaling Pathways and Restoring Intestinal Homeostasis” (J Med Chem, 2022).
Activity calls are given as the source filed them. The rule behind the calls is not given here.

What was measured:
[1] = test system: THP1-Dual; assay: Inhibition of LPS induced TNF alpha expression in human THP1-Dual cells at 1 uM incubated for 6 hrs; type: functional, cell-based
[2] = molecular target: Tyrosine-protein kinase JAK2 (Homo sapiens, UniProt O60674)
Description: Inhibition of JAK2 (unknown origin) using Kinase/Tyr 6 peptide as substrate incubated for 1 hrs in presence of ATP by fluorescence microplate reader analysis

[3] = Toxicity in mouse assessed as effect on neutrophils number at 20 to 50 mg/kg, IG measured upto 2 weeks; type: organism-based; conditions: in vivo, po, 336 h, dose 20-50 mg/kg
[4] = Toxicity in mouse assessed as abnormality in gastrointestinal tract at 20 to 50 mg/kg, IG measured upto 2 weeks; type: organism-based; conditions: in vivo, po, 336 h, dose 20-50 mg/kg
[5] = Toxicity in mouse assessed as abnormal change in spleen at 20 to 50 mg/kg, IG measured upto 2 weeks; type: organism-based; conditions: in vivo, po, 336 h, dose 20-50 mg/kg
[6] = test system: Mus musculus; assay: Antiinflammatory activity in DSS-induced acute colitis C57BL/6 mouse model assessed as reduction in inflammatory cell infiltration in colon by measuring histopathological score at 1 to 3 mg/kg, po by H and E staining based analysis; type: functional, organism-based; conditions: dose 1-3 mg/kg
[7] = test system: Mus musculus; assay: Antiinflammatory activity in DSS-induced acute enteritis C57BL mouse model assessed as suppression of DSS induced weight loss at 3 mg/kg, po administered daily and measured upto 11 days relative to control; type: functional; conditions: time <= 11 day
[8] = Toxicity in mouse assessed as effect on red blood cell number at 20 to 50 mg/kg, IG measured upto 2 weeks; type: organism-based; conditions: in vivo, po, 336 h, dose 20-50 mg/kg
[9] = test system: THP1-Dual; assay: Downregulation of JAK/STAT in human THP1-Dual cells at 1 uM incubated for 6 hrs; type: functional, cell-based
[10] = molecular target: Tyrosine-protein kinase JAK1 (Homo sapiens, UniProt P23458); assay: Inhibition of JAK1 (unknown origin) using Kinase/Tyr 6 peptide as substrate incubated for 1 hrs in presence of ATP by fluorescence microplate reader analysis
[11] = test system: THP1-Dual; assay: Downregulation of unfolded protein response in human THP1-Dual cells at 1 uM incubated for 6 hrs; type: functional, cell-based
[12] = Cytotoxicity against human THP1-Dual cells assessed as inhibition of cell growth measured after 24 hrs by CCK-8 method; type: toxicity, cell-based
[13] = test system: Mus musculus; assay: Antiinflammatory activity in DSS-induced acute colitis C57BL/6 mouse model assessed as reduction in colon villi integrity in colon by measuring histopathological score at 1 to 3 mg/kg, po by H and E staining based analysis; type: functional, organism-based; conditions: dose 1-3 mg/kg
[14] = test system: THP1-Dual; assay: Anti-inflammatory activity against LPS-stimulated human THP1-Dual cells assessed as reduction in STAT1 phosphorylation level incubated for 6 hrs by Western blot analysis; type: functional, cell-based; conditions: dose 0.33-3 µM, DDE = dose-dependent effect
[15] = test system: Mus musculus; assay: Anti-inflammatory bowl disease activity in DSS-induced acute enteritis mouse model assessed as increase in norank_f_Muribaculaceae abundance at 3 mg/kg; type: functional, organism-based
[16] = test system: Mus musculus; assay: Anti-inflammatory activity in TNBS induced IBD BALB/c mouse model assessed as increase in survival probability at 5 mg/kg via oral gavage administered daily for 12 days; type: functional, organism-based; conditions: time 12.0 day
[17] = test system: Mus musculus; assay: Anti-inflammatory activity in TNBS induced IBD BALB/c mouse model assessed as reduction in weight by measuring disease activity index score at 1 to 5 mg/kg via oral gavage administered daily for 12 days measured daily; type: functional, organism-based; conditions: dose 1-5 mg/kg, time 12.0 day
[18] = test system: THP1-Dual; assay: Downregulation of complement system in human THP1-Dual cells at 1 uM incubated for 6 hrs; type: functional, cell-based
[19] = test system: Mus musculus; assay: Anti-inflammatory bowel disease activity in DSS-induced acute enteritis mouse model assessed as decrese in lactobacillus abundance at 3 mg/kg; type: functional, organism-based
[20] = Toxicity in mouse assessed as drug tolerability at 20 to 50 mg/kg, IG measured upto 2 weeks; type: organism-based; conditions: in vivo, po, 336 h, dose 20-50 mg/kg
[21] = test system: Mus musculus; assay: Antiinflammatory activity in DSS-induced acute colitis C57BL/6 mouse model assessed as reduction in weight loss by measuring DAI score at 1 to 3 mg/kg, po administered daily and measured upto 11 days; type: functional, organism-based; conditions: dose 1-3 mg/kg, time <= 11.0 day
[22] = test system: THP1-Dual; assay: Anti-inflammatory activity against LPS-stimulated human THP1-Dual cells assessed as reduction in phosphorylation of NF-kappa B level incubated for 6 hrs by Western blot analysis; type: functional, cell-based; conditions: dose 0.33-3 µM, DDE = dose-dependent effect
[23] = Cytotoxicity against human HUVEC cells assessed as inhibition of cell growth measured after 24 hrs by CCK-8 method; type: toxicity, cell-based
[24] = test system: Mus musculus; assay: Anti-inflammatory activity in TNBS induced IBD BALB/c mouse model assessed as reduction in stool softness by measuring disease activity index score at 1 to 5 mg/kg via oral gavage administered daily for 12 days; type: functional, organism-based; conditions: dose 1-5 mg/kg, time 12.0 day
[25] = test system: Mus musculus; assay: Antiinflammatory activity in DSS-induced acute colitis C57BL/6 mouse model assessed as recovery of colon length at 1 to 3 mg/kg, po administered daily and measured upto 11 days; type: functional, organism-based; conditions: dose 1-3 mg/kg, time <= 11.0 day

Sequence of Tyrosine-protein kinase JAK2 (O60674 whole entry): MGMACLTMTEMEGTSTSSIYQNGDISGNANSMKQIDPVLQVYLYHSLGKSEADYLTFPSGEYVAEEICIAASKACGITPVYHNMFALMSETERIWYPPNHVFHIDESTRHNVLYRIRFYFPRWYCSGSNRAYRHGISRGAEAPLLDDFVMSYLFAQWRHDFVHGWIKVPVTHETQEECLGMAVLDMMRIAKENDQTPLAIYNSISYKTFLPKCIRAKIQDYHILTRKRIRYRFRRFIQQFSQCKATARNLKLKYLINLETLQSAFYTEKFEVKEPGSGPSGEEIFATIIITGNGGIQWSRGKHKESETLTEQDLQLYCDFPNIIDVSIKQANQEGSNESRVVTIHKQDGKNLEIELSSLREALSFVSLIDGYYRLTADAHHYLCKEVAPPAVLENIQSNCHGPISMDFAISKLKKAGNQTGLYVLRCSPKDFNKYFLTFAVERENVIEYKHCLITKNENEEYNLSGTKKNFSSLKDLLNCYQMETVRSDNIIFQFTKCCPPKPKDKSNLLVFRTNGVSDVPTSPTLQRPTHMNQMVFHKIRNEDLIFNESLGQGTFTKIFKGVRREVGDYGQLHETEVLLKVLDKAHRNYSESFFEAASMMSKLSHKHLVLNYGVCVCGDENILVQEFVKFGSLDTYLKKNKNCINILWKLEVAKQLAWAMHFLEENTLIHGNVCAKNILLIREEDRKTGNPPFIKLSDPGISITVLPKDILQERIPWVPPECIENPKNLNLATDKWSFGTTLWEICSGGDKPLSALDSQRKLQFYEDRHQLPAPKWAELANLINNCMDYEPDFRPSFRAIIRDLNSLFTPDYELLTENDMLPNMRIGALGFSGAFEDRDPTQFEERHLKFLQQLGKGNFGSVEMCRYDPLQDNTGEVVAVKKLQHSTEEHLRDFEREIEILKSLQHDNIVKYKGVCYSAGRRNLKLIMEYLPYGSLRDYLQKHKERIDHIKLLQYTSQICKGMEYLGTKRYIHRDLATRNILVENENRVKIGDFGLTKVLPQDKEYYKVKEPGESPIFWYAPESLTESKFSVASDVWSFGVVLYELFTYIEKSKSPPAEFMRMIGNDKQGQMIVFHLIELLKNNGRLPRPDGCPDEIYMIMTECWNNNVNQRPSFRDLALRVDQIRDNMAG
Sequence of Tyrosine-protein kinase JAK1 (P23458 whole entry): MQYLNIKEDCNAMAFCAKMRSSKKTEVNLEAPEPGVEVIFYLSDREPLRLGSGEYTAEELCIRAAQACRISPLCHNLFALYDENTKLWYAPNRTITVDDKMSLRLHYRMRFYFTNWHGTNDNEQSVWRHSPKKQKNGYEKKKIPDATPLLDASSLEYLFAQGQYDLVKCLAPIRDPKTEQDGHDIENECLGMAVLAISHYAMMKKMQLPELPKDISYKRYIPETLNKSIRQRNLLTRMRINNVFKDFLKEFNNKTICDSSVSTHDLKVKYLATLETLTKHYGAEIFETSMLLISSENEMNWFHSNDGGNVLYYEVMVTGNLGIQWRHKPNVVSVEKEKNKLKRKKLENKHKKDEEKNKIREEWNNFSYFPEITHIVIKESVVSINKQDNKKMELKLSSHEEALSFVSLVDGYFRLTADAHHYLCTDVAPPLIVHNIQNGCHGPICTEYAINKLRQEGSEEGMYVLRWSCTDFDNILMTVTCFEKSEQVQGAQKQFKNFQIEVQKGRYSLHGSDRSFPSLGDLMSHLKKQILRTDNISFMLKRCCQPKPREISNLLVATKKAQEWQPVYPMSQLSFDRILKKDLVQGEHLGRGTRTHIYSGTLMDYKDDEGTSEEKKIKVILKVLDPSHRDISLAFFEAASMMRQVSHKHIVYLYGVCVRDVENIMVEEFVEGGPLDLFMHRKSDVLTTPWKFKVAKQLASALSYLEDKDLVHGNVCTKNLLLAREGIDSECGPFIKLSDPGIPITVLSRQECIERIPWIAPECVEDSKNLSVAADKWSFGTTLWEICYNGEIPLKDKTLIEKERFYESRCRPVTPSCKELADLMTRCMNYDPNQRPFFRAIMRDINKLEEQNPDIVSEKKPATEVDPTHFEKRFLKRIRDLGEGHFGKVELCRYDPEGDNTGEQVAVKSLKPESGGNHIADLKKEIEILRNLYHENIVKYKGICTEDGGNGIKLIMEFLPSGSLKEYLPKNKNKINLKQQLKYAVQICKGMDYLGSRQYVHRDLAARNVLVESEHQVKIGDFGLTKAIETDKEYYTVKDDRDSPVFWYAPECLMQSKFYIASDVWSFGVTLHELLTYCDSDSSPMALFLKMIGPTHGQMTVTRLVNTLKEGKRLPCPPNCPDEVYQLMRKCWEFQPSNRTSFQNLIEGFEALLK

Compound: Cc1nc2cnc3ccc(-c4cc(Cl)c(O)c(Cl)c4)cc3c2n1C1CCN(C)CC1
- inhibition [1]: Active
- IC50 [2]: 15 nM
- Activity [3]: Non-Toxic
- Activity [4]: Non-Toxic
- Activity [5]: Non-Toxic
- Activity [6]: Active
- Activity [7]: 10.81%
- Activity [8]: Non-Toxic
- Activity [9]: Active
- IC50 [10]: 8.9 nM
- Activity [11]: Active
- IC50 at 24 h [12]: 4300 nM
- Activity [13]: Active
- Activity [14]: Dde
- Activity [15]: Active
- Activity [16]: Active
- Activity [17]: Active
- Activity [18]: Active
- Activity [19]: Active
- Activity [20]: Non-Toxic
- Activity [21]: Active
- Activity [22]: Dde
- IC50 at 24 h [23]: > 10000 nM
- Activity [24]: Active
- Activity [25]: Active
